Test results published in patent US20020064847A1, “NOVEL SECONDARY ALCOHOL DEHYDROGENASE, PROCESS FOR PREPARING SAID ENZYME, AND PROCESS FOR PREPARING ALCOHOLS AND KETONES USING SAID ENZYME” (priority 1996, published 2002).
Entries after “also recorded” stand apart in the source; their conditions may differ. Where two headings read alike, the source gives them in different places.

Tests used:
[1] = system: secondary alcohol dehydrogenase; experiment: Substrate specificity, oxidation reaction; assay type: biochemical, Geotrichum candidum IFO 4601; conditions: coenzyme NAD+, (S)-1,3-butanediol-oxidizing activity = 100
Experimental: (§1) In the present invention, secondary alcohol dehydrogenase activity was determined by allowing the enzyme to react in the reaction mixture containing potassium phosphate buffer (pH 8.0, 50 μmol), 2.5 μmol NAD^+, and 50μmol (S)-1,3-butanediol at 30° C. and measuring an increase of absorbance at 340 nm resulting from generation of NADH. One unit was defined as the amount of enzyme catalyzing generation of 1μmol of NADH per minute.
(§2) The secondary alcohol dehydrogenase was reacted with various alcohols and aldehydes. Its oxidation and reduction activities are shown in Table 1 as relative activities to (S)-1,3-butanediol-oxidizing activity and 4-hydroxy-2-butanone-reducing activity that are taken as 100.

[2] = system: secondary alcohol dehydrogenase; experiment: Behavior of the secondary alcohol dehydrogenase to inhibitors (residual activity); assay type: biochemical, Geotrichum candidum IFO 4601; conditions: for Residual activity: 30° C. for 10 minutes
Experimental: as §1
The secondary alcohol dehydrogenase was treated with various reagents at 30° C. for 10 minutes.

[3] = system: secondary alcohol dehydrogenase; experiment: Substrate specificity, reduction reaction; assay type: biochemical, Geotrichum candidum IFO 4601; conditions: 4-hydroxy-2-butanone-reducing activity = 100
Experimental: The secondary alcohol dehydrogenase was examined for its activity of oxidation of (S)-1,3-butanediol and that of reduction of 4-hydroxy-2-butanone [which was measured under the same conditions as those used for measuring activity of oxidation of (S)-1,3-butanediol except for using NADH (0.4 μmol) instead of NAD^+] at different pHs using potassium-phosphate buffer (KPB), Tris-HCl buffer and Britten-Robinson buffer by measuring the decrease of absorbance at 340 nm accompanied with reduction of the amount of NADH. The activity is shown in FIGS. 3 and 4 as relative activity with taking the maximal activity as 100. The optimum pH in the reaction was 8.0-9.0 in the case of the oxidation of (S)-1,3-butanediol (FIG. 3) and 7.0 in the case of the reduction of 4-hydroxy-2-butanone (FIG. 4).
as §2

[4] = system: secondary alcohol dehydrogenase; experiment: Enzyme kinetic analysis; assay type: biochemical, Geotrichum candidum IFO 4601
Experimental: as §1
The reaction rate constants of the purified secondary alcohol dehydrogenase to the following substrates were measured.

[5] = system: secondary alcohol dehydrogenase; experiment: Substrate specificity, oxidation reaction; assay type: biochemical, Geotrichum candidum IFO 4601; conditions: substrate 50 mM, coenzyme NADP+, (S)-1,3-butanediol-oxidizing activity = 100
[6] = molecular target: primary alcohol dehydrogenase (SADH 1) (Saccharomyces cerevisiae, UniProt P00330); conditions: SADH 1 from Saccharomyces cerevisiae; cited from earlier work
[7] = substrate 100 mM, coenzyme NADH

Sequence of primary alcohol dehydrogenase (SADH 1) (P00330 whole entry): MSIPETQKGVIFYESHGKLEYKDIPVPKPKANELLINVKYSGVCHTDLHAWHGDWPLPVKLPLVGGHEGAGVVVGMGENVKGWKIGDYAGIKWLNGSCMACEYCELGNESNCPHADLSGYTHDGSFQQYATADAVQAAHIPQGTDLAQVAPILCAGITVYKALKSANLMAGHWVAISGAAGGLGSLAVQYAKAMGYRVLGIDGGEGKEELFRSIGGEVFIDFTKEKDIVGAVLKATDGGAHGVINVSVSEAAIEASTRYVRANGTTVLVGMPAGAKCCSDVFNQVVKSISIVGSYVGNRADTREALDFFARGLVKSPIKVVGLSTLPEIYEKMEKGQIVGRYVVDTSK

1-butanol gave a Relative activity ([1]; substrate 100 mM) of 12.9%.
Work on 1-propanol yielded a Relative activity ([1]; substrate 100 mM) of 15.5%.
Molecule `O[C@H](CS)[C@H](O)CS` (racemic) [dithiothreitol] has a Residual activity ([2]; inhibitor 1.0 mM) of 42.9%.
For `CCC(C)=O` [2-butanone], the Relative activity [3, 7] was 20.2%.
With `OCCS` [2-mercaptoethanol] the “Inhibition of the enzyme (in words)” value [2] was “markedly inhibited”, the Residual activity ([2]; inhibitor 0.01 mM) was 6.8% and the “Inhibition of the enzyme (in words)” value ([2]; listed as 2-mercaptethanol) was “inhibited”.
In the case of `CC(C)O` [2-propanol], the Relative activity ([1]; substrate 100 mM) is reported as 96.8%.
`CC(=O)CCO` [4-hydroxy-2-butanone] showed a Relative activity ([3]; substrate 20 mM, coenzyme NADH) of 100% and a Relative activity ([3]; substrate 20 mM, coenzyme NADPH) of 0%.
For `C[C@@H](O)CO` [(R)-1,2-propanediol], the Relative activity ([1]; substrate 50 mM) was 10.4%.
For `C[C@@H](O)CCO` [(R)-1,3-butanediol], the E value ([4]; (S)- versus (R)-1,3-butanediol) was 33.0, the Vmax ([4]; purified enzyme) was 4.43 U/mg of protein and the Relative activity [5] was 8.8%.
With `C[C@@H](O)c1ccccc1` [(R)-1-phenylethanol] the Relative activity ([1]; substrate 50 mM) was 19.2%.
With `CCCCCC[C@@H](C)O` [(R)-2-octanol] the Relative activity ([1]; substrate 5 mM) was 13.3%.
With `C[C@H](O)CO` [(S)-1,2-propanediol] the Relative activity ([1]; substrate 50 mM) was 23.8%.
With `C[C@H](O)CCO` [(S)-1,3-butanediol] the Km ([4]; purified enzyme) was 41.4 mM, the Vmax ([4]; purified enzyme) was 36.7 U/mg of protein and the Relative activity ([1]; substrate 50 mM) was 100%. For the same molecule, the Relative activity [5] was 2.4%.
`C[C@H](O)c1ccccc1` [(S)-1-phenylethanol] gave a Relative activity ([1]; substrate 50 mM) of 267%.
For `CCCCCC[C@H](C)O` [(S)-2-octanol], the Relative activity ([1]; substrate 5 mM) was 187%.
For `CC(C)=O` [acetone], the Relative activity [3, 7] was 164%.
Molecule `CC(=O)c1ccccc1` [acetophenone] has a Relative activity ([3]; substrate 20 mM, coenzyme NADH) of 122%.
In the case of `C=CCO` [allyl alcohol], the Relative activity ([1]; substrate 100 mM) is reported as 18.7%.
`[Cl][Co][Cl]` [cobalt chloride] gave a Residual activity ([2]; inhibitor 1.0 mM) of 81.0%.
Molecule `O=S(=O)([O-])[O-].[Cu+2]` [copper sulfate] has a Residual activity ([2]; inhibitor 1.0 mM) of 71.5%.
For `OC1CCCCC1` [cyclohexanol], the Relative activity ([1]; substrate 20 mM) was 90.4%.
For `CCO` [ethanol], the Relative activity ([1]; substrate 100 mM) was 10.7%.
Work on `CCOC(=O)CC(C)=O` [ethyl acetoacetate] yielded a Relative activity [3, 7] of 96.8%.
For `O=C(O)CN(CCN(CC(=O)O)CC(=O)O)CC(=O)O` [ethylenediaminetetraacetic acid], the “Inhibition of the enzyme (in words)” value [2] was “inhibited”, the Residual activity ([2]; inhibitor 1.0 mM) was 63.5% and the Residual activity ([2]; inhibitor 10 mM) was 9.8%.
Molecule `OCC(O)CO` [glycerol] has a Relative activity ([1]; substrate 50 mM) of 0%.
With `NC(=O)CI` [iodoacetamide] the “Inhibition of the enzyme (in words)” value [2] was “perfectly inhibited; also recorded: markedly inhibited” and the Residual activity ([2]; inhibitor 1.0 mM) was 2.4%.
In the case of `[Cl][Hg][Cl]` [mercuric chloride], the “Inhibition of the enzyme (in words)” value [2] is reported as “markedly inhibited”, the Residual activity ([2]; inhibitor 1.0 mM) is reported as 0.0% and the “Inhibition of the enzyme (in words)” value ([2]; listed as mercury chloride) is reported as “inhibited”.
With `CO` [methanol] the Relative activity ([1]; substrate 100 mM) was 60.8%.
Molecule `COC(=O)C[C@@H](C)O` [methyl (R)-3-hydroxybutyrate] has a Relative activity ([1]; substrate 50 mM) of 22.1%.
With `COC(=O)C[C@H](C)O` [methyl (S)-3-hydroxybutyrate] the Relative activity ([1]; substrate 50 mM) was 138%.
For `O=C(O)c1cc[c]([Hg][Cl])cc1` [p-chloromercuribenzoic acid], the “Inhibition of the enzyme (in words)” value [2] was “perfectly inhibited”, the Residual activity ([2]; inhibitor 0.05 mM) was 0.0% and the “Inhibition of the enzyme (in words)” value ([2]; listed as parachloromercuribenzoic acid) was “markedly inhibited”.
For `[Cl-].[Cl-].[Zn+2]` [zinc chloride], the “Inhibition of the enzyme (in words)” value [2] was “markedly inhibited” and the Residual activity ([2]; inhibitor 10 mM) was 0.9%.
(R)-2-butanol gave a Relative activity ([1]; substrate 50 mM) of 60.0%.
In the case of (RS)-2-butanol, the Relative activity ([1]; substrate 100 mM) is listed as 85.9% and the “Activity relative to ethanol” value [6] is listed as “approximately 1%”.
Work on (S)-2-butanol yielded a Relative activity ([1]; substrate 50 mM) of 112%.
